For 16 molecules, inhibition results are on record in patent US5089516A, “1-phenyl-3,5-pyrazolidinedione hydroxystyrene compounds which have tyrosine kinase inhibiting activity” (Kanegafuchi Kagaku Kogyo Kabushiki Kaisha, priority 1987, dated 1992).

The target in one test is T1, 5-lipoxygenase (Cavia porcellus, UniProt A0A286X958).
T1 construct: The cytosol fraction was used as an enzyme solution; from tissue; host or cells: peritoneal exudate cells of casein-injected Hartley guinea pigs, 105,000×g cytosol
T1 sequence (A0A286X958 1-674): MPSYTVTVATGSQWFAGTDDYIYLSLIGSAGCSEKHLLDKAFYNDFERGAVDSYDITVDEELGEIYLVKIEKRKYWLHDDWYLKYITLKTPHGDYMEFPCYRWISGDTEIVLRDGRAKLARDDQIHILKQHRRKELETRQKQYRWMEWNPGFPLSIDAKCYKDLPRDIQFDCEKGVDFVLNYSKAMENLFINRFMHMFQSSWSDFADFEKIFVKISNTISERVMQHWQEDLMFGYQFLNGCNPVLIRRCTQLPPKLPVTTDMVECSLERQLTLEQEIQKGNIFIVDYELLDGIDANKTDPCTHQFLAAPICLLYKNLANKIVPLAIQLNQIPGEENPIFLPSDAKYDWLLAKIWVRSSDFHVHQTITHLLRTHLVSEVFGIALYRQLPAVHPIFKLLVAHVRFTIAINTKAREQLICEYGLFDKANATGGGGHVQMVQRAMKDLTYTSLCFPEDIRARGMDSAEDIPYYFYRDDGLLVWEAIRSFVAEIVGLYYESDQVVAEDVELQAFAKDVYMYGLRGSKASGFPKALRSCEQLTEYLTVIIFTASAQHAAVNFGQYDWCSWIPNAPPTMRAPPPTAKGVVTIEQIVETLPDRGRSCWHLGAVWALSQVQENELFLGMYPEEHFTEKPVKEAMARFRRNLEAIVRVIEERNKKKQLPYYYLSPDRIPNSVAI
The test is described as follows: 5-Lipoxygenase inhibiting activity (5-HETE formation, cytosol of peritoneal exudate cells). The format is biochemical, Hartley guinea pigs. To be noted: read-out: Inhibition rate (5-lipoxygenase); for inhibition at 1 µM: 1 μM in the reaction mixture; for inhibition at 10 µM: 10 μM in the reaction mixture. In short, it runs like this: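 Enzyme source: cytosol (105,000×g supernatant) of casein-elicited guinea pig peritoneal exudate cells, preincubated 5 min at 30 °C with compound (2% ethanol final), 1 mM CaCl2, 1 mM GSH, 2 mM ATP, then 5 min with 20 μM [1-14C]arachidonic acid. 5-HETE separated by TLC, counted by scintillation; % inhibition versus ethanol control.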

In test [1] the target is T2, epidermal growth factor receptor-tyrosine kinase complex (Homo sapiens, UniProt P00533).
T2 construct: The membrane preparation was employed in the following measurement without solubilization; endogenous in cells; host or cells: A-431 (ATCC CRL1555), membrane preparation, not solubilized
The test is described as follows: Tyrosine kinase inhibiting activity (A-431 membrane preparation, EGF-stimulated). The format is biochemical. To be noted: read-out: Tyrosine kinase inhibition rate; for inhibition at 10 µM: 10 μM in the reaction mixture; for inhibition at 1 µM: 1 μM in the reaction mixture. In short, it runs like this: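 Unsolubilized A-431 membranes (10 μg protein) in 20 mM HEPES pH 7.4 with 1 mM MnCl2 were preincubated with compound (DMSO) 5 min at 0° C, stimulated with 100 ng EGF 15 min, then phosphorylated with [γ-32P]ATP 15 min at 0° C. TCA-precipitated radioactivity on filter counted; inhibition % calculated against no-EGF and no-compound controls.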

T2 sequence (P00533 25-1210, one chain of several): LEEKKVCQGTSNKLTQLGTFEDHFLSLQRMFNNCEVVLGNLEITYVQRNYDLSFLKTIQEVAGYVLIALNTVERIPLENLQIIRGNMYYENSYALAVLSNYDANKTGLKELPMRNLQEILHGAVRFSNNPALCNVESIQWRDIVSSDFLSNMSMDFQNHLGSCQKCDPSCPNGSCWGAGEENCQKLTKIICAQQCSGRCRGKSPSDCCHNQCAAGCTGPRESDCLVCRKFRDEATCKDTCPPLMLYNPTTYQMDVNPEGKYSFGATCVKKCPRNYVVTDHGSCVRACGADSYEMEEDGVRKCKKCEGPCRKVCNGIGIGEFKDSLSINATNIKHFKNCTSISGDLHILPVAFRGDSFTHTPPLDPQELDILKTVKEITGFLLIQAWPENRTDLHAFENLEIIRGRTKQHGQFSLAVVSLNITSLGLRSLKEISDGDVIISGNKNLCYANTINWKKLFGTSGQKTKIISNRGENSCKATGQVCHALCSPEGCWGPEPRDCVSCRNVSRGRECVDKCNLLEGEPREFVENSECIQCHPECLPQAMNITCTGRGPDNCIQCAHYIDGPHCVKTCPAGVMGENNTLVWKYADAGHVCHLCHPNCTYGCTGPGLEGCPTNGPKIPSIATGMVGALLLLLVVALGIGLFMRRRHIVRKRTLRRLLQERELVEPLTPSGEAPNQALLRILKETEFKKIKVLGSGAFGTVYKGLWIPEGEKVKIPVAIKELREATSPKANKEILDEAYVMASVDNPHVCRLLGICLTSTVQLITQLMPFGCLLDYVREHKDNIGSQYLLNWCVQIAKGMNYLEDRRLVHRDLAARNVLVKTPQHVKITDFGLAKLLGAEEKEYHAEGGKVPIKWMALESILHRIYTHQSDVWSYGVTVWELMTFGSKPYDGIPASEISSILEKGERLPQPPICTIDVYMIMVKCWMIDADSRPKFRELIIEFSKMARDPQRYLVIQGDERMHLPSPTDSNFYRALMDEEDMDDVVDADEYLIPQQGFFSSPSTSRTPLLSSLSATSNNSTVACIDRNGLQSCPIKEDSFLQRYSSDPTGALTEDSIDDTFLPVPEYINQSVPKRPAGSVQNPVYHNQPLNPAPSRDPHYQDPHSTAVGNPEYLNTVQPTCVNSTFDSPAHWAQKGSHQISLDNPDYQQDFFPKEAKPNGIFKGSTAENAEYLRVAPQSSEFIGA

Regarding `O=C1N=C(NCc2ccccc2)SC1=Cc1cc(Cc2ccccc2)c(O)c(Cc2ccccc2)c1` [Compound 26], the inhibition at 1 µM on 5-lipoxygenase turned out to be 84%. The inhibition at 10 µM in test [1] was 62%.
As to `CC(C)c1cc(C=C2SC(NCc3ccc(Cl)c(Cl)c3)=NC2=O)cc(C(C)C)c1O` [Compound 37], the inhibition at 10 µM stood at 89% at 5-lipoxygenase and 83% in test [1].
Take `Cc1ccc(CNC2=NC(=O)C(=Cc3cc(C(C)C)c(O)c(C(C)C)c3)S2)cc1` [Compound 39]: the inhibition at 10 µM on 5-lipoxygenase turned out to be 87%; in test [1], 43%.
For `CC(C)c1cc(C=C2SC(NCc3ccccc3)=NC2=O)cc(C(C)C)c1O` [Compound 33], in that order: 82% and 69%.
On to `CC(C)c1cc(C=C2SC(NCc3ccc(F)cc3)=NC2=O)cc(C(C)C)c1O` [Compound 35], for which the inhibition at 10 µM on 5-lipoxygenase was 89%. The inhibition at 1 µM in test [1] is 70%.
Consider `CCCCOc1cc(C=C2SC(=S)NC2=O)cc(CSc2ccccc2)c1O` [Compound 9], for which, on 5-lipoxygenase, the inhibition at 1 µM is 91%. In test [1], the inhibition at 10 µM came to 50%.
For `O=C1NC(=S)SC1=Cc1cc(CSc2ccccc2)c(O)c(OCc2ccccc2)c1` [Compound 8], in that order: 61% and 69%.
With `O=C1NN(c2ccccc2)C(=O)C1=Cc1cc(O)c(O)c(Cc2ccccc2)c1` [Compound 24], the values for the inhibition at 1 µM (at 5-lipoxygenase; in test [1]) were 48% and 37%, respectively.
Take `O=C1NC(=S)SC1=Cc1cc(O)c(O)c(CSc2ccccc2)c1` [Compound 7]: the inhibition at 1 µM at 5-lipoxygenase came to 88%. Besides, in test [1], the inhibition at 10 µM turned out to be 59%.
On to `O=C1N=C(NCc2cccs2)SC1=Cc1cc(CSc2ccccc2)c(O)c(OCc2ccccc2)c1` [Compound 31], for which, at 5-lipoxygenase, the inhibition at 1 µM was found to be 49%. Moreover, the inhibition at 10 µM in test [1] came to 41%.
Turning to `O=C1NC(=S)SC1=Cc1cc(Cc2ccccc2)c(O)c(Cc2ccccc2)c1` [Compound 2], the inhibition at 10 µM on 5-lipoxygenase was determined as 78%. The inhibition at 1 µM in test [1] worked out at 20%.
Turning to `CC(C)c1cc(C=C2SC(NCc3ccc(S(N)(=O)=O)cc3)=NC2=O)cc(C(C)C)c1O` [Compound 41], the figures for the inhibition at 10 µM (on 5-lipoxygenase; in test [1]) were 89% and 70%, respectively.
Take `CCCCOc1cc(C=C2SC(=S)NC2=O)cc(Cc2ccccc2)c1O` [Compound 10]: the inhibition at 1 µM was 23% on 5-lipoxygenase and 40% in test [1].
As for `O=C1NN(c2ccccc2)C(=O)C1=Cc1cc(Cc2ccccc2)c(O)c(Cc2ccccc2)c1` [Compound 20], at 5-lipoxygenase, the inhibition at 10 µM was 83%. Moreover, in test [1], the inhibition at 1 µM worked out at 46%.
For `CC(C)c1cc(C=C2SC(NCc3ccc(N)cc3)=NC2=O)cc(C(C)C)c1O` [Compound 42], in that order: 88% and 85%.
As for `O=C1Nc2ccccc2C1=Cc1cc(O)c(O)c(CSc2ccccc2)c1` [Compound 11], the inhibition at 1 µM on 5-lipoxygenase amounted to 87%. For the same molecule, in test [1], the inhibition at 10 µM worked out at 52%.

A word on the inhibition: it is the relative decrease from the control value, in per cent.
